Biological target: T1, DNA polymerase iota (Mus musculus, UniProt Q6R3M4)
T1 sequence (Q6R3M4 whole entry): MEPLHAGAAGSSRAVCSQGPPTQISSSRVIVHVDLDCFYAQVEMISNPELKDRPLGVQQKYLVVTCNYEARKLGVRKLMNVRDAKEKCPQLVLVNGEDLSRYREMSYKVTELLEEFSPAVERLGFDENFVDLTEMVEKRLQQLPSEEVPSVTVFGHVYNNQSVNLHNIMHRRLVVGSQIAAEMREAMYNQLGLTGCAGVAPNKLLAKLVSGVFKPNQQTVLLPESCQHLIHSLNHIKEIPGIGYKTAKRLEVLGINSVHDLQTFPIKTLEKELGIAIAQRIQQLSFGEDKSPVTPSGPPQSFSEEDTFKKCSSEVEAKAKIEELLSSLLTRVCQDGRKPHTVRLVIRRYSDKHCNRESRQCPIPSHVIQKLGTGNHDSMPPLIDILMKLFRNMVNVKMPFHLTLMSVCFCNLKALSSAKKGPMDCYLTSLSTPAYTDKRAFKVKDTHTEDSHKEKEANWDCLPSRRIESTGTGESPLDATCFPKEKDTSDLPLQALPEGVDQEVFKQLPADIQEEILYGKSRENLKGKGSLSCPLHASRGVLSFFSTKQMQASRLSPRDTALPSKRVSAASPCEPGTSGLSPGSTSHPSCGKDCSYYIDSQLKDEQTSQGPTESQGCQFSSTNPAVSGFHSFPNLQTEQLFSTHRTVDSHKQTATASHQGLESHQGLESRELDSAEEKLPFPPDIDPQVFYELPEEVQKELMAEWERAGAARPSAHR
Assay: Inhibition of mouse DNA polymerase iota

| IC50 [µM] | Structure (SMILES) |
| --- | --- |
| 19.8 | C/C=C/C(=O)C1=C(OC)OC(C)(/C=C/C=C/C(C)O)C1=O (configuration not stated) [PENICILLIOL A] |
| 32.5 | COC1=C(C(=O)CC(C)O)C(=O)C(C)(/C=C/C=C/C(C)O)O1 (configuration not stated) [PENICILLIOL B] |
